Measured values taken from US20210171948A1, “COMPOSITIONS AND METHODS FOR TARGETING GLYPICAN-2 IN THE TREATMENT OF CANCER” (Shepherd Therapeutics, Inc., priority 2019, published 2021).
d = 2'-deoxy (DNA); r = 2'-OH (RNA)

Legend:
SH-SY5Y cells [1] = experiment: Cyclophosphamide IC50 in siRNA-transfected cells, Cell Titer Glo 2.0 viability (Example 7); assay type: cell-based; settings: for Data Summary: effect of knockdown on sensitivity to cyclophosphamide: SH-SY5Y; for IC50: SH-SY5Y cells transfected with the labelled siRNA, cyclophosphamide added 24 hr post transfection, 72 hour incubation
Procedure: (§1) GPC2 mRNA expression was reduced with the indicated siRNAs and changes in cell viability were assessed in multiple neuroblastoma cell lines. Cells were transfected with either a control siRNA or with GPC2 siRNA sequences 3, 5 or 7 from Table 7 using the RNAiMAX Lipofectamine kit (Invitrogen, Carlsbad, Calif.) as previously described in 96 wells for viability assays. Cyclophosphamide was added at increasing concentrations (0-20 uM) to transfected cells at 24 hr post transfection. Following a 72 hour incubation period, viability measurements were made using Cell Titer Glo 2.0.

CHP212 cells [2] = experiment: as above; assay type: cell-based; settings: for Data Summary: effect of knockdown on sensitivity to cyclophosphamide: CHP212; for IC50: CHP212 cells transfected with the labelled siRNA, cyclophosphamide added 24 hr post transfection, 72 hour incubation
Procedure: as §1

CHLA-90 cells [3] = experiment: as above; assay type: cell-based; settings: for IC50: CHLA-90 cells transfected with the labelled siRNA, cyclophosphamide added 24 hr post transfection, 72 hour incubation
Procedure: as §1

SK-N-BE2 cells [4] = experiment: as above; assay type: cell-based; settings: for Data Summary: effect of knockdown on sensitivity to cyclophosphamide: SK-N-BE2; for IC50: SK-N-BE2 cells transfected with the labelled siRNA, cyclophosphamide added 24 hr post transfection, 72 hour incubation
Procedure: as §1

SH-SY5Y cells [5] = experiment: Doxorubicin IC50 in siRNA-transfected cells, Cell Titer Glo viability (Example 8); assay type: cell-based; settings: SH-SY5Y cells transfected with the labelled siRNA; doxorubicin added 24 hours post transfection, 72 hour incubation
Procedure: as §1, with “reduced” for “reduced with the indicated siRNAs”, “with GPC-2” for “with GPC2”, “assays. Doxorubicin” for “assays. Cyclophosphamide”, “concentrations (0-5” for “concentrations (0-20”, “24 hours” for “24 hr”, “Titer Glo.” for “Titer Glo 2.0.”

CHP212 cells [6] = experiment: as above; assay type: cell-based; settings: for Data Summary: effect of knockdown on sensitivity to doxorubicin: CHP212; for IC50: CHP212 cells transfected with the labelled siRNA, doxorubicin added 24 hours post transfection, 72 hour incubation
Procedure: as §1, with “reduced” for “reduced with the indicated siRNAs”, “with GPC-2” for “with GPC2”, “assays. Doxorubicin” for “assays. Cyclophosphamide”, “concentrations (0-5” for “concentrations (0-20”, “24 hours” for “24 hr”, “Titer Glo.” for “Titer Glo 2.0.”

CHLA-90 cells [7] = experiment: as above; assay type: cell-based; settings: for IC50: CHLA-90 cells transfected with the labelled siRNA, doxorubicin added 24 hours post transfection, 72 hour incubation
Procedure: as §1, with “reduced” for “reduced with the indicated siRNAs”, “with GPC-2” for “with GPC2”, “assays. Doxorubicin” for “assays. Cyclophosphamide”, “concentrations (0-5” for “concentrations (0-20”, “24 hours” for “24 hr”, “Titer Glo.” for “Titer Glo 2.0.”

SK-N-BE2 cells [8] = experiment: as above; assay type: cell-based; settings: for IC50: SK-N-BE2 cells transfected with the labelled siRNA, doxorubicin added 24 hours post transfection, 72 hour incubation
Procedure: as §1, with “reduced” for “reduced with the indicated siRNAs”, “with GPC-2” for “with GPC2”, “assays. Doxorubicin” for “assays. Cyclophosphamide”, “concentrations (0-5” for “concentrations (0-20”, “24 hours” for “24 hr”, “Titer Glo.” for “Titer Glo 2.0.”

GPC2 mRNA [9] = experiment: GPC2 mRNA knockdown in neuroblastoma cell lines, representative data from a separate experiment (Tables 10-14); assay type: cell-based, human; set-up: concentration or dose not given beside the values
GPC2 mRNA [10] = experiment: GPC2 mRNA knockdown in neuroblastoma cell lines (Example 4); assay type: cell-based, human; settings: for Degree of GPC2 knockdown among sequences 3, 5, 12-15: CHP212, SKNAS and SHSY5Y neuroblastoma cell lines, 96 hour incubation (FIG. 3A)
Procedure: GPC2 mRNA knockdown was assessed in multiple neuroblastoma cell lines. Cells were transfected with either a scrambled control siRNA, with GPC2 siRNA sequences 3 or 5 from Table 7, or with siRNA sequences generated by Dharmacon (sequences 12-15 from Table 7) using the RNAiMAX Lipofectamine kit (Invitrogen, Carlsbad, Calif.) as previously described. Following a 96 hour incubation period, total RNA samples were collected to compare knockdown efficiency and viability was measured in parallel plated cells.
The extent of GPC2 mRNA reduction was assessed with additional GPC2 siRNA sequences in the CHP212 neuroblastoma cell line. Cells were transfected with either a scrambled control siRNA or with GPC2 siRNA sequences 3 or 5, or with siRNA sequences 6-11 (Sigma) using the RNAiMAX Lipofectamine kit (Invitrogen, Carlsbad, Calif.) as previously described. Following a 96 hour incubation period, total RNA samples were collected and viability was measured in parallel plated cells.
The extent of GPC2 mRNA reduction (knockdown) and corresponding protein level expression changes were assessed in three neuroblastoma cell lines following siRNA knockdown of GPC2. The CHP212 neuroblastoma cell line (FIG. 5A and FIG. 5D), the SH-SY5Y neuroblastoma cell line (FIG. 5B and FIG. 5E) and the CHLA90 neuroblastoma cell line (FIG. 5C and FIG. 5F) were transfected with GPC2 siRNA sequences 5 and 7 from Table 7 and a scrambled control siRNA using the RNAiMAX Lipofectamine kit (Invitrogen, Carlsbad, Calif.) as previously described. Following a 24, 48, or 72 hour incubation period, cells were washed and total RNA was isolated for measuring GPC2 mRNA expression. For protein analysis, cells were fixed, immunostained using an antibody against GPC2 protein, protein expression was measured via flow cytometry. As shown, GPC2 mRNA knockdown was observed beginning at the 24 hr time point and lasted for at least 72 hours. GPC2 protein expression started to decrease at the 48 hr time point.

SH-SY5Y cells [11] = experiment: Etoposide IC50 in siRNA-transfected cells, Cell Titer Glo 2.0 viability (Example 9); assay type: cell-based; settings: for Data Summary: effect of knockdown on sensitivity to etoposide: SH-SY5Y; for IC50: SH-SY5Y cells transfected with the labelled siRNA, etoposide added 24 hours post transfection, 72 hour incubation
Procedure: as §1, with “reduced” for “reduced with the indicated siRNAs”, “Etoposide” for “Cyclophosphamide”, “(0-15” for “(0-20”, “hours” for “hr”, “measurement” for “measurements”

CHP212 cells [12] = experiment: as above; assay type: cell-based; settings: for IC50: CHP212 cells transfected with the labelled siRNA, etoposide added 24 hours post transfection, 72 hour incubation
Procedure: as §1, with “reduced” for “reduced with the indicated siRNAs”, “Etoposide” for “Cyclophosphamide”, “(0-15” for “(0-20”, “hours” for “hr”, “measurement” for “measurements”

CHLA-90 cells [13] = experiment: as above; assay type: cell-based; settings: for IC50: CHLA-90 cells transfected with the labelled siRNA, etoposide added 24 hours post transfection, 72 hour incubation
Procedure: as §1, with “reduced” for “reduced with the indicated siRNAs”, “Etoposide” for “Cyclophosphamide”, “(0-15” for “(0-20”, “hours” for “hr”, “measurement” for “measurements”

SK-N-BE2 cells [14] = experiment: as above; assay type: cell-based; settings: for Data Summary: effect of knockdown on sensitivity to etoposide: SK-N-BE2; for IC50: SK-N-BE2 cells transfected with the labelled siRNA, etoposide added 24 hours post transfection, 72 hour incubation
Procedure: as §1, with “reduced” for “reduced with the indicated siRNAs”, “Etoposide” for “Cyclophosphamide”, “(0-15” for “(0-20”, “hours” for “hr”, “measurement” for “measurements”

[15] = CHLA-90, compared to scrambled siRNA control
[16] = CHLA-136, compared to scrambled siRNA control
[17] = CHLA-172, compared to scrambled siRNA control
[18] = CHP212, compared to scrambled siRNA control
[19] = KELLY, compared to scrambled siRNA control
[20] = SH-SY5Y, compared to scrambled siRNA control
[21] = SK-N-BE2, compared to scrambled siRNA control
[22] = SKNAS, compared to scrambled siRNA control

Row | Substance | Data Summary: effect of knockdown on sensitivity to cyclophosphamide (SH-SY5Y cells [1]) | IC50 (SH-SY5Y cells [1]) | Data Summary: effect of knockdown on sensitivity to cyclophosphamide (CHP212 cells [2]) | IC50 (CHP212 cells [2]) | IC50 (CHLA-90 cells [3]) | Data Summary: effect of knockdown on sensitivity to cyclophosphamide (SK-N-BE2 cells [4]) | IC50 (SK-N-BE2 cells [4]) | IC50 (SH-SY5Y cells [5]) | Data Summary: effect of knockdown on sensitivity to doxorubicin (CHP212 cells [6]) | IC50 (CHP212 cells [6]) | IC50 (CHLA-90 cells [7]) | IC50 (SK-N-BE2 cells [8]) | % KD; percent GPC2 mRNA reduction (knockdown) (GPC2 mRNA [9]; [15]) | % KD; percent GPC2 mRNA reduction (knockdown) (GPC2 mRNA [9]; [16]) | % KD; percent GPC2 mRNA reduction (knockdown) (GPC2 mRNA [9]; [17]) | % KD; percent GPC2 mRNA reduction (knockdown) (GPC2 mRNA [9]; [18]) | % KD; percent GPC2 mRNA reduction (knockdown) (GPC2 mRNA [9]; [19]) | % KD; percent GPC2 mRNA reduction (knockdown) (GPC2 mRNA [9]; [20]) | % KD; percent GPC2 mRNA reduction (knockdown) (GPC2 mRNA [9]; [21]) | % KD; percent GPC2 mRNA reduction (knockdown) (GPC2 mRNA [9]; [22]) | also measured
1 | GPC2 siRNA 3: siRNA duplex: sense CCUGCUUGGACCUCGAUAA[dT][dT] (SEQ ID NO: 207), anti-sense UUAUCGAGGUCCAAGCAGG[dT][dT] (SEQ ID NO: 208) (sense CCUGCUUGGACCUCGAUAANN; antisense UUAUCGAGGUCCAAGCAGGNN; 3' dTdT overhangs, chemistry not fully specified; listed as Homo sapiens) | increases sensitivity to | 1500 nM | increases sensitivity to | 870 nM | 30000 nM | increases sensitivity to | 2410 nM | 80 nM | does not increase sensitivity | 30 nM | 350 nM | 1000 nM | 50% | 25% | 5% | 60% | 65% | 55% | 55% | 40% | Degree of GPC2 knockdown among sequences 3, 5, 12-15 (GPC2 mRNA [10]): greater; Data Summary: effect of knockdown on sensitivity to etoposide (SH-SY5Y cells [11]): 7 increases sensitivity to etoposide; IC50 (SH-SY5Y cells [11]): 80 nM; IC50 (CHP212 cells [12]): 30 nM; IC50 (CHLA-90 cells [13]): 350 nM; Data Summary: effect of knockdown on sensitivity to etoposide (SK-N-BE2 cells [14]): 7 increases sensitivity to etoposide; IC50 (SK-N-BE2 cells [14]): 1000 nM
2 | GPC2 siRNA 5: siRNA duplex: sense CUCAGUAGCCCAGCACUCU[dT][dT] (SEQ ID NO: 211), anti-sense AGAGUGCUGGGCUACUGAG[dT][dT] (SEQ ID NO: 212) (sense CUCAGUAGCCCAGCACUCUTT; antisense AGAGUGCUGGGCUACUGAGTT; sugars from the 5' end r19 d2, backbone not given here; listed as Homo sapiens) | increases sensitivity to | 300 nM | increases sensitivity to | 450 nM | 20000 nM | increases sensitivity to | 1800 nM | 50 nM | does not increase sensitivity | 20 nM | 250 nM | 20 nM | 55% | 35% | 8% | 70% | 75% | 75% | 68% | 70% | Data Summary: effect of knockdown on sensitivity to cyclophosphamide (CHLA-90 cells [3]; CHLA-90): increases sensitivity to; Data Summary: effect of knockdown on sensitivity to doxorubicin (CHLA-90 cells [7]; CHLA-90): increases sensitivity to; Data Summary: effect of knockdown on sensitivity to doxorubicin (SK-N-BE2 cells [8]; SK-N-BE2): increases sensitivity to; Time for which reduced GPC2 mRNA expression was sustained (GPC2 mRNA [10]; CHLA90 neuroblastoma cells (FIG. 5C)): 72 h; Time point at which GPC2 mRNA knockdown was first observed (GPC2 mRNA [10]; CHP212, SH-SY5Y and CHLA90 neuroblastoma cell lines): 24 h; Degree of GPC2 knockdown among sequences 3, 5, 12-15 (GPC2 mRNA [10]): greater; Degree of GPC2 knockdown among sequences 3, 5, 6-11 (GPC2 mRNA [10]; CHP212 neuroblastoma cell line, 96 hour incubation (FIG. 4A)): greater; Time for which reduced GPC2 mRNA expression was sustained (GPC2 mRNA [10]; CHP212 neuroblastoma cells (FIG. 5A)): 72 h; Time for which reduced GPC2 mRNA expression was sustained (GPC2 mRNA [10]; SH-SY5Y neuroblastoma cells (FIG. 5B)): 72 h; Data Summary: effect of knockdown on sensitivity to etoposide (SH-SY5Y cells [11]): 7 increases sensitivity to etoposide; IC50 (SH-SY5Y cells [11]): 50 nM; Data Summary: effect of knockdown on sensitivity to etoposide (CHP212 cells [12]; CHP212): increases sensitivity to etoposide; IC50 (CHP212 cells [12]): 20 nM; Data Summary: effect of knockdown on sensitivity to etoposide (CHLA-90 cells [13]; CHLA-90): increases sensitivity to etoposide; IC50 (CHLA-90 cells [13]): 250 nM; Data Summary: effect of knockdown on sensitivity to etoposide (SK-N-BE2 cells [14]): 7 increases sensitivity to etoposide; IC50 (SK-N-BE2 cells [14]): 20 nM
